PubChem BioAssay (NCI)
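48-hour exposure; five concentrations; linearly interpolated endpoints. GI50 marks 50% less growth. TGI: total growth inhibition.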

Key:
Assay in all cases: NCI-60 cell line screen, 48 h; in the data active = GI50 below about 0.43 µM; inactive = the rest
[1] = system: 786-0 renal
[2] = system: A549 NSCLC
[3] = system: ACHN renal
[4] = system: BT-549 breast
[5] = system: CAKI-1 renal
[6] = system: CCRF-CEM leukemia
[7] = system: COLO 205 colon
[8] = system: DU-145 prostate
[9] = system: EKVX NSCLC
[10] = system: HCC-2998 colon
[11] = system: HCT-116 colon
[12] = system: HCT-15 colon
[13] = system: HL-60(TB) leukemia
[14] = system: HOP-62 NSCLC
[15] = system: HS 578T breast
[16] = system: HT29 colon
[17] = system: IGROV1 ovarian
[18] = system: K-562 leukemia
[19] = system: KM12 colon
[20] = system: LOX IMVI melanoma
[21] = system: M14 melanoma
[22] = system: MALME-3M melanoma
[23] = system: MCF7 breast
[24] = system: MDA-MB-231 breast
[25] = system: MDA-N
[26] = system: MOLT-4 leukemia
[27] = system: NCI-H226 lung
[28] = system: NCI-H23 lung
[29] = system: NCI-H460 lung
[30] = system: NCI-H522 lung
[31] = system: NCI/ADR-RES ovarian
[32] = system: OVCAR-4 ovarian
[33] = system: OVCAR-5 ovarian
[34] = system: OVCAR-8 ovarian
[35] = system: PC-3 prostate
[36] = system: RPMI-8226 leukemia
[37] = system: RXF 393 renal
[38] = system: SF-268 CNS
[39] = system: SF-295 CNS
[40] = system: SF-539 CNS
[41] = system: SK-MEL-2 melanoma
[42] = system: SK-MEL-28 melanoma
[43] = system: SK-MEL-5 melanoma
[44] = system: SK-OV-3 ovarian
[45] = system: SN12C renal
[46] = system: SNB-19 CNS
[47] = system: SNB-75 CNS
[48] = system: SR leukemia
[49] = system: SW-620 colon
[50] = system: T-47D breast
[51] = system: TK-10 renal
[52] = system: U251 CNS
[53] = system: UACC-257 melanoma
[54] = system: UACC-62 melanoma
[55] = system: UO-31 renal
[56] = system: HOP-92 NSCLC
[57] = system: A498 renal
[58] = system: MDA-MB-435
[59] = system: OVCAR-3 ovarian

O=C(O)CCCc1ccc2c(c1)C(C(=O)O)CC2 (stereo not drawn)
> 100 µM: TGI [1] | TGI [2] | TGI [3] | TGI [4] | TGI [5] | TGI [6] | TGI [7] | TGI [8] | TGI [9] | TGI [10] | TGI [11] | TGI [12] | TGI [13] | TGI [14] | TGI [15] | TGI [16] | TGI [17] | TGI [18] | TGI [19] | TGI [20] | TGI [21] | TGI [22] | TGI [23] | TGI [24] | TGI [25] | TGI [26] | TGI [27] | TGI [28] | TGI [29] | TGI [30] | TGI [31] | TGI [32] | TGI [33] | TGI [34] | TGI [35] | TGI [36] | TGI [37] | TGI [38] | TGI [39] | TGI [40] | TGI [41] | TGI [42] | TGI [43] | TGI [44] | TGI [45] | TGI [46] | TGI [47] | TGI [48] | TGI [49] | TGI [50] | TGI [51] | TGI [52] | TGI [53] | TGI [54] | TGI [55]

Cc1ccc(S(=O)(=O)NC(=O)Nc2ccc(C(=O)O)cc2)cc1
> 100 µM: TGI [1] | TGI [2] | TGI [3] | TGI [4] | TGI [6] | TGI [7] | TGI [8] | TGI [11] | TGI [12] | TGI [13] | TGI [14] | TGI [56] | TGI [15] | TGI [16] | TGI [17] | TGI [18] | TGI [19] | TGI [20] | TGI [21] | TGI [22] | TGI [23] | TGI [24] | TGI [25] | TGI [26] | TGI [28] | TGI [29] | TGI [30] | TGI [31] | TGI [32] | TGI [33] | TGI [34] | TGI [35] | TGI [36] | TGI [37] | TGI [38] | TGI [39] | TGI [40] | TGI [41] | TGI [42] | TGI [43] | TGI [44] | TGI [45] | TGI [46] | TGI [47] | TGI [49] | TGI [50] | TGI [51] | TGI [52] | TGI [53] | TGI [54] | TGI [55]

O=c1[nH]c2ccccc2cc1-c1nnc(Cc2ccccc2)o1
16 µM: TGI [51]
inactive: GI50 [1] 4 µM | GI50 [57] 13.3 µM | GI50 [2] 15.7 µM | GI50 [4] 2.56 µM | GI50 [5] 3.65 µM | GI50 [6] 1.7 µM | GI50 [7] 3.55 µM | GI50 [8] 5.18 µM | GI50 [10] 12.7 µM | GI50 [11] 1.41 µM | GI50 [12] 3.3 µM | GI50 [13] 3.43 µM | GI50 [14] 12.6 µM | GI50 [56] 3.34 µM | GI50 [15] 13.3 µM | GI50 [16] 3.78 µM | GI50 [17] 5.2 µM | GI50 [18] 3.29 µM | GI50 [19] 10.4 µM | GI50 [20] 1.75 µM | GI50 [21] 3.16 µM | GI50 [22] 3.94 µM | GI50 [23] 2.41 µM | GI50 [24] 3.29 µM | GI50 [58] 3.51 µM | GI50 [26] 2.67 µM | GI50 [27] 11.5 µM | GI50 [28] 11.3 µM | GI50 [29] 6.63 µM | GI50 [30] 2.27 µM | GI50 [31] 14.4 µM | GI50 [59] 3.25 µM | GI50 [32] 4.23 µM | GI50 [35] 4.16 µM | GI50 [36] 1.94 µM | GI50 [37] 2.93 µM | GI50 [38] 10.7 µM | GI50 [39] 11.2 µM | GI50 [43] 3.43 µM | GI50 [44] 18.3 µM | GI50 [45] 3.46 µM | GI50 [46] 12.9 µM | GI50 [47] 6.07 µM | GI50 [48] 2.03 µM | GI50 [49] 1.87 µM | GI50 [50] 3.04 µM | GI50 [51] 5.23 µM | GI50 [52] 4.12 µM | GI50 [53] 4.79 µM | GI50 [54] 3.43 µM | GI50 [55] 1.72 µM
14.7 µM: TGI [24]
21.2 µM: TGI [13]
38.1 µM: TGI [44] | TGI [46]
13.2 µM: TGI [7]
16.2 µM: TGI [22]
16.4 µM: TGI [43]
15.6 µM: TGI [54]
32.2 µM: TGI [39]
94.4 µM: TGI [27]
15.2 µM: TGI [21]
28.4 µM: TGI [19]
17.1 µM: TGI [50]
3.1 µM: TGI [11]
11 µM: TGI [59]
> 100 µM: TGI [2] | TGI [15]
3.72 µM: TGI [55]
10.9 µM: TGI [37] | TGI [48]
34.3 µM: TGI [14]
28.3 µM: TGI [29]
27.5 µM: TGI [10]
18.5 µM: TGI [8]
5.9 µM: TGI [30]
71.1 µM: TGI [31]
15.3 µM: TGI [56]
18.3 µM: TGI [32]
14.9 µM: TGI [52]
21.4 µM: TGI [47]
14.4 µM: TGI [5] | TGI [18]
70.6 µM: TGI [35]
6.67 µM: TGI [36]
39.5 µM: TGI [28]
7.79 µM: TGI [6]
4.16 µM: TGI [49]
10.2 µM: TGI [4]
12.9 µM: TGI [16] | TGI [23]
28.2 µM: TGI [45]
24.4 µM: TGI [53]
4.3 µM: TGI [20]
13.5 µM: TGI [12]
9.22 µM: TGI [26]
42 µM: TGI [38]
27.1 µM: TGI [57] | TGI [17]
17.5 µM: TGI [58]
14.6 µM: TGI [1]
